{"source": "paper PMC9409043", "about": "“Serotonin 5-HT6 Receptor Ligands and Butyrylcholinesterase Inhibitors Displaying Antioxidant Activity—Design, Synthesis and Biological Evaluation of Multifunctional Agents against Alzheimer’s Disease” (International Journal of Molecular Sciences, 2022)", "key": {"[1]": {"molecular_target": "T1, BuChE isolated from human plasma (hBuChE) (Homo sapiens, UniProt P06276)", "T1 construct": "BuChE isolated from human plasma (hBuChE); tissue Vivonics (Bedford, MA, USA), donated; host or cells: human plasma", "T1 sequence (P06276 29-602)": "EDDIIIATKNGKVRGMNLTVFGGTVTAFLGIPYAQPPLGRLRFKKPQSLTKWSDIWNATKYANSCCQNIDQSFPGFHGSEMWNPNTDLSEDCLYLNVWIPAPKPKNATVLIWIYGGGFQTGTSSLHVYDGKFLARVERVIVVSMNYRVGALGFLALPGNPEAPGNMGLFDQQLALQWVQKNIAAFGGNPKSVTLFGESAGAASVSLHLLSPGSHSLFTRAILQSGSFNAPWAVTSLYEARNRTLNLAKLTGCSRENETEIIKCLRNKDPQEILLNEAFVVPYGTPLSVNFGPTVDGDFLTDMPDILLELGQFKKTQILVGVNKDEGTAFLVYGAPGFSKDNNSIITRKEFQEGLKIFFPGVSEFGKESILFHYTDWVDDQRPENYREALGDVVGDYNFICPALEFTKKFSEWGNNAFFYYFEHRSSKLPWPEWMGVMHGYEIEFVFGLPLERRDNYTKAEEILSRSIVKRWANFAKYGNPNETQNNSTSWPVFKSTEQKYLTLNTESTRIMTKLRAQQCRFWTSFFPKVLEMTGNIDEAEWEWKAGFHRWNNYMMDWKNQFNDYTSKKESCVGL", "experiment": "biochemical", "format": "biochemical", "details": "for IC50: mean ± SEM of at least three experiments", "experimental": "(§1) 5-HT6R binding affinity and cholinesterase (AChE/BuChE) inhibitory activity. […] Their affinities for recombinant human 5-HT6 receptors (h5-HT6R) were tested in a radioligand binding assay and the inhibitory potencies against human recombinant AChE (hAChE) and BuChE isolated from human plasma (hBuChE) in the spectrophotometric Ellman’s assay.\n(§2) The assay was based on spectrophotometric Ellman’s method and was performed in 96-well microplates with the reagents purchased from Sigma-Aldrich (Steinheim, Germany) according to the previously described procedure. hBuChE was kindly donated by Vivonics (Bedford, MA, USA). […] After 5 minutes of the enzymatic reaction, the changes in absorbance were measured at 412 nm, using a microplate reader (SPECTROstar Nano; BMG Labtech, Ortenberg, Germany). First, compounds were tested at the screening concentration of 10 µM. Based on the equation 100 − (S/B) × 100 (where S and B were the respective enzyme activities with and without the test sample, respectively) the percentage inhibition of each enzyme for each compound was calculated. […] The IC50 values were calculated using nonlinear regression (GraphPad Prism 5; GraphPad Software, San Diego, CA, USA) by plotting the residual enzyme activities against the applied inhibitor concentration. […] All experiments were performed in triplicate."}, "human 5-HT6 receptor": {"molecular_target": "T2, human 5-HT6 receptor (Homo sapiens, UniProt P50406)", "T2 construct": "purchased PerkinElmer; host or cells: CHO-K1 cells, stably transfected (membrane preparation)", "T2 sequence (P50406 whole entry)": "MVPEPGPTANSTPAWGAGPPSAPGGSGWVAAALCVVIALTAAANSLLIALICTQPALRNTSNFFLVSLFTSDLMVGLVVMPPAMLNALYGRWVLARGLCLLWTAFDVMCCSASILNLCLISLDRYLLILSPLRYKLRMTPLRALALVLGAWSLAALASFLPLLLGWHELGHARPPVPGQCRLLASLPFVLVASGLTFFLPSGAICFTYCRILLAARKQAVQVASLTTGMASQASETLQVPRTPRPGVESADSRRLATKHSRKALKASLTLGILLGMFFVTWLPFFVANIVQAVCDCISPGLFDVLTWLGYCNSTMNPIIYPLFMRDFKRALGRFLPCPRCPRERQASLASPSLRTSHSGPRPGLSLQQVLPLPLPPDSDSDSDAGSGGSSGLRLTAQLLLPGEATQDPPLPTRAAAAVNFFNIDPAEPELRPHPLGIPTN", "experiment": "5-HT6 receptor radioligand binding assay ([3H]-LSD, CHO-K1 membranes)", "experimental": "5-HT6R binding affinity and cholinesterase (AChE/BuChE) inhibitory activity. We evaluated the pharmacological properties of the final compounds 12–19 in vitro according to the previously described, well-established protocols. Their affinities for recombinant human 5-HT6 receptors (h5-HT6R) were tested in a radioligand binding assay and the inhibitory potencies against human recombinant AChE (hAChE) and BuChE isolated from human plasma (hBuChE) in the spectrophotometric Ellman’s assay. […].\nWe prepared 10 mM of stock solutions of tested compounds in DMSO. Serial dilutions of compounds were prepared in a 96-well microplate in assay buffers using the automated pipetting system epMotion 5070 (Eppendorf). Each compound was tested in 8 concentrations from 10^−5 to 10^−12 M (final concentration).\nThe radioligand binding assay was performed using membranes from CHO-K1 cells stably transfected with the human 5-HT6 receptor (PerkinElmer) according to the previously described procedure. All assays were carried out in duplicates. We prepared 50 µL working solution of the tested compounds, 50 µL [^3H]-LSD (final concentration 2.5 nM) and 150 µL diluted membranes (15 µg protein per well) in assay buffer (50 mM Tris, pH 7.4, 10 mM MgCl2, 0.1 mM EDTA) and transferred them to polypropylene 96-well microplates using a 96-well pipetting station Rainin Liquidator (MettlerToledo). Methiothepin (10 μM) was used to define nonspecific binding. The microplate was covered with sealing tape, mixed and incubated for 60 min at 27 °C. The reaction was terminated by rapid filtration through GF/B filter mate presoaked with 0.5% polyethyleneimine for 30 min. Ten rapid washes with 200 µL 50 mM Tris buffer (4 °C, pH 7.4) were performed using the automated harvester system Harvester-96 MACH III FM (Tomtec). The filter mates were dried at 37 °C in a forced air fan incubator and then solid scintillator MeltiLex was melted on filter mates at 90 °C for 5 min. Radioactivity was counted in MicroBeta2 scintillation counter (PerkinElmer). Data were fitted to a one-site curve-fitting equation with Prism 6 (GraphPad Software) and Ki values were estimated from the Cheng−Prusoff equation."}, "[2]": {"molecular_target": "T3, human recombinant AChE (hAChE) (Homo sapiens, UniProt P22303)", "T3 construct": "purchased Sigma-Aldrich (Steinheim, Germany)", "T3 sequence (P22303 32-614)": "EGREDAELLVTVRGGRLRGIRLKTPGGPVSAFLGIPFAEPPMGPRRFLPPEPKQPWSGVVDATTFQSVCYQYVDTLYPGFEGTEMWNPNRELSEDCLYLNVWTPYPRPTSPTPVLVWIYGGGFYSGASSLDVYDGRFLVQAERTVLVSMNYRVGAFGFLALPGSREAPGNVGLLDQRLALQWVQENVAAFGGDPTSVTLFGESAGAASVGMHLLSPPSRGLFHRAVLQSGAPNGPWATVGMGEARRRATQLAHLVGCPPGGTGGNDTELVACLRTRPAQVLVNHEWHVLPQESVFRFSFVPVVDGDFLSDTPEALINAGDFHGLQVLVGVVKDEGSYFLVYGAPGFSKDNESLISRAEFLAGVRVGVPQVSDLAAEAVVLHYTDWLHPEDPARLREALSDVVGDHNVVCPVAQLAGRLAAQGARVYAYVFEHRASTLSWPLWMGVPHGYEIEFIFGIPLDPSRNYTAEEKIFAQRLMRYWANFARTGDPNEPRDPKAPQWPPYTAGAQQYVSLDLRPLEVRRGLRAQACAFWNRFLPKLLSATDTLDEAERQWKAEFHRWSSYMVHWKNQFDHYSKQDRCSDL", "experiment": "biochemical", "details": "mean ± SEM of at least three experiments", "experimental": "as §1, §2"}, "[3]": {"experiment": "ABTS free radical scavenging assay", "description": "Antioxidant activity. As mentioned before, oxidative stress is one of the components of AD pathomechanism and is characterised by an imbalance in the production of ROS. One of the mechanisms by which antioxidants reduce the concentration of ROS and therefore prevent or slow the cell damage caused by free radicals is scavenging them. Thus, we tested the scavenging ability of compounds 12–19 in the spectrophotometric ABTS assay that we used before. In this assay, the ability of compounds to scavenge ABTS^• radicals, which are generated from 2,2’-azino-bis(3-ethylbenzothiazoline-6-sulphonic acid) (ABTS), is measured. We tested the compounds at three concentrations: 30, 75 and 150 μM after 5, 30 and 60 min of incubation using Trolox, a water-soluble vitamin E analogue, as a reference (Table S1 in Supporting information).\nThe spectrophotometric ABTS assay was performed in 96-well microplates with the reagents purchased from Sigma-Aldrich (Steinheim, Germany) according to the previously described procedure. Stock solutions of the tested compounds (6.4 mM) and reagents were prepared in DMSO and water, respectively. 2,2′-Azino-bis(3-ethylbenzothiazoline-6-sulfonic acid) free radical (ABTS^•) was prepared by mixing the stock solution of ABTS (7 mM) and […] (2.45 mM) in ratio 1:1. The mixture was kept in the dark at 4 °C for 16 h. The obtained solution of (ABTS^•) was diluted with water 20 times. Then, the test compound or water or mixture of DMSO/water in the appropriate ratio (0.02 mL) was added to ABTS^• solution (0.18 mL). The three concentrations of the test compounds and Trolox were tested in triplicate: 0.15, 0.075 and 0.03 mM. Changes in absorbance were measured at 734 nm after 5, 30 and 60 min, using a microplate reader (SPECTROstar Nano; BMG Labtech, Ortenberg, Germany). Based on the equation ((A0 − A)/A0) × 100% (where A0 and A were the absorbances without and with the test compound, respectively) the percentage of free radical scavenging activity was calculated. The results are presented as mean ± SD."}}, "note": "Where “and” joins values, the source holds several entries; their conditions need not be identical. Equal entries are not always repeated.", "data": [{"smiles": "O=S(=O)(c1ccccc1)n1ccc2c(OCCNCCCC3CCN(Cc4ccccc4)CC3)cccc21", "note": "[Compound 14, 3-(1-Benzylpiperidin-4-yl)-N-(2-((1-(phenylsulfonyl)-1H-indol-4-yl)oxy)ethyl)propan-1-amine]", "values": [{"measurement": "fold higher potency against hBuChE than hAChE", "setting": "[1]; hAChE IC50 vs. hBuChE IC50", "result": 60, "unit": "fold"}, {"measurement": "IC50", "setting": "[1]", "result": "16 ± 1", "unit": "nM"}, {"measurement": "Ki", "setting": "human 5-HT6 receptor", "result": "22 ± 2", "unit": "nM"}, {"measurement": "IC50", "setting": "[2]", "result": "930 ± 35", "unit": "nM"}, {"measurement": "% of ABTS• reduction ± SD", "setting": "[3]; 30 µM, 5 min", "result": "5±3", "unit": "%"}, {"measurement": "% of ABTS• reduction ± SD", "setting": "[3]; 30 µM, 30 min", "result": "5±3", "unit": "%"}, {"measurement": "% of ABTS• reduction ± SD", "setting": "[3]; 30 µM, 60 min", "result": "6±3", "unit": "%"}, {"measurement": "% of ABTS• reduction ± SD", "setting": "[3]; 75 µM, 5 min", "result": "13±1", "unit": "%"}, {"measurement": "% of ABTS• reduction ± SD", "setting": "[3]; 75 µM, 30 min", "result": "18±0", "unit": "%"}, {"measurement": "% of ABTS• reduction ± SD", "setting": "[3]; 75 µM, 60 min", "result": "21±0", "unit": "%"}, {"measurement": "% of ABTS• reduction ± SD", "setting": "[3]; 150 µM, 5 min", "result": "20±0", "unit": "%"}, {"measurement": "% of ABTS• reduction ± SD", "setting": "[3]; 150 µM, 30 min", "result": "29±0", "unit": "%"}, {"measurement": "% of ABTS• reduction ± SD", "setting": "[3]; 150 µM, 60 min", "result": "35±0% and 35%"}]}, {"smiles": "O=S(=O)(c1ccccc1)N1CCc2c(OCCNCC3CCN(Cc4ccccc4)CC3)cccc21", "note": "[Compound 15, N-((1-Benzylpiperidin-4-yl)methyl)-2-((1-(phenylsulfonyl)indolin-4-yl)oxy)ethan-1-amine]", "values": [{"measurement": "IC50", "setting": "[1]", "result": "5410 ± 100", "unit": "nM"}, {"measurement": "Ki", "setting": "human 5-HT6 receptor", "result": "267 ± 9", "unit": "nM"}, {"measurement": "IC50", "setting": "[2]", "result": "8210 ± 225", "unit": "nM"}, {"measurement": "% of ABTS• reduction ± SD", "setting": "[3]; 30 µM, 5 min", "result": "10±0", "unit": "%"}, {"measurement": "% of ABTS• reduction ± SD", "setting": "[3]; 30 µM, 30 min", "result": "10±1", "unit": "%"}, {"measurement": "% of ABTS• reduction ± SD", "setting": "[3]; 30 µM, 60 min", "result": "11±0", "unit": "%"}, {"measurement": "% of ABTS• reduction ± SD", "setting": "[3]; 75 µM, 5 min", "result": "11±1", "unit": "%"}, {"measurement": "% of ABTS• reduction ± SD", "setting": "[3]; 75 µM, 30 min", "result": "13±1", "unit": "%"}, {"measurement": "% of ABTS• reduction ± SD", "setting": "[3]; 75 µM, 60 min", "result": "15±1", "unit": "%"}, {"measurement": "% of ABTS• reduction ± SD", "setting": "[3]; 150 µM, 5 min", "result": "19±1", "unit": "%"}, {"measurement": "% of ABTS• reduction ± SD", "setting": "[3]; 150 µM, 30 min", "result": "29±1", "unit": "%"}, {"measurement": "% of ABTS• reduction ± SD", "setting": "[3]; 150 µM, 60 min", "result": "36±4", "unit": "%"}]}, {"smiles": "O=c1[nH]c2c(OCCNCCC3CCN(Cc4ccccc4)CC3)cccc2n1Cc1ccccc1", "note": "[Compound 18, 1-Benzyl-4-(2-((2-(1-benzylpiperidin-4-yl)ethyl)amino)ethoxy)-1,3-dihydro-2H-benzo[d]imidazol-2-one]", "values": [{"measurement": "IC50", "setting": "[1]", "result": "1160 ± 24", "unit": "nM"}, {"measurement": "Ki", "setting": "human 5-HT6 receptor", "result": "142 ± 20", "unit": "nM"}, {"measurement": "IC50", "setting": "[2]", "result": "2860 ± 68", "unit": "nM"}, {"measurement": "% of ABTS• reduction ± SD", "setting": "[3]; 30 µM, 5 min", "result": "10±1", "unit": "%"}, {"measurement": "% of ABTS• reduction ± SD", "setting": "[3]; 30 µM, 30 min", "result": "23±1", "unit": "%"}, {"measurement": "% of ABTS• reduction ± SD", "setting": "[3]; 30 µM, 60 min", "result": "27±1", "unit": "%"}, {"measurement": "% of ABTS• reduction ± SD", "setting": "[3]; 75 µM, 5 min", "result": "11±1", "unit": "%"}, {"measurement": "% of ABTS• reduction ± SD", "setting": "[3]; 75 µM, 30 min", "result": "31±1", "unit": "%"}, {"measurement": "% of ABTS• reduction ± SD", "setting": "[3]; 75 µM, 60 min", "result": "36±2", "unit": "%"}, {"measurement": "% of ABTS• reduction ± SD", "setting": "[3]; 150 µM, 5 min", "result": "13±0", "unit": "%"}, {"measurement": "% of ABTS• reduction ± SD", "setting": "[3]; 150 µM, 30 min", "result": "33±0", "unit": "%"}, {"measurement": "% of ABTS• reduction ± SD", "setting": "[3]; 150 µM, 60 min", "result": "40±0", "unit": "%"}]}]}
